Blank lines part the entries; values can stand above or below the compound they belong to.
Key:
Assay type in all cases: physicochemical
[1] = Triamcinolone acetonide remaining after storage with aluminum oxide powder (HPLC)
Experimental: Aluminum oxide powder (Aldrich, neutral, activated Brockmann I, 150 mesh), which mimics aluminum oxide existing on the inner surface of aluminum containers was surface treated by being immersed in a 0.1% w/w solution of A1 in methyl tertiary butyl ether (analytical reagent grade) for 30 minutes while exposed to ultrasonic agitation. The methyl tertiary butyl ether solution was decanted and the powder was allowed to air dry. A triamcinolone stock solution (4 mM) was prepared by adding triamcinolone acetonide to ethanol. Approximately 0.1 g of treated powder was then placed in a vial containing 2 mL of triamcinolone stock solution and stored at 70° C. An extract of the triamcinolone solution was taken after one day of storage and analyzed using high performance liquid chromatography to determine remaining drug content. The amount of drug remaining is reported (in Table 1) as a percentage of the initial amount of drug present and was determined as the average of 3 independent measurements.
Aluminum oxide powder was surface treated and tested as described above with a variety of other organic surface treatment compounds. The type of compound, the amount of triamcinolone acetonide (TA) remaining after 1 day storage, and the percentage of aluminum oxide (AO) powder remaining chemically treated after exposure to drug solution in shown in Table 1.
Approximately 0.1 g of untreated aluminum oxide powder was placed in a vial containing 2 mL of triamcinolone stock solution and stored at 70° C. An extract of the triamcinolone solution was taken after one day of storage and analyzed using high performance liquid chromatography to determine remaining drug content.

[2] = Valve deposition measurement
Excerpt: Metered dose inhalers (MDIs) were fired 122 times to waste. The MDI was shaken for not less than 3 seconds prior to each actuation with a delay of at least 30 seconds between successive actuations. An additional 5 shots were then fired to waste with the MDI in a valve up orientation to clean out the valve. The metering valves were then removed from the MDIs and the outside of the stem cleaned to remove any residual drug adhering to the outer surface. The valve was immersed in diluent (acetonitrile:water 75:25 v/v) and sonicated for approximately 2 hours followed by shaking for at least 30 minutes. An aliquot was removed and analyzed for drug content by conventional HPLC analysis (albuterol sulfate and pirbuterol acetate: 55% 100 mM triethylamine phosphate with 5 mM sodium dodecyl sulfate, pH 2.5/45% methanol v:v, UV detection at 225 nm; flunisolide hemihydrate: 60% water/40% acetonitrile v:v, UV detection at 244 nm). Results are reported as an average of 5 to 8 replicates unless otherwise noted.
Individual valve components (stem, tank, spring, ferrule, and bottle emptier) were initially soaked in isopropanol (analytical reagent grade) for 30 minutes while exposed to ultrasonic agitation. Excess solvent was removed and the components were air dried.
The valve components were then immersed in a 0.1% w/w solution of A1 in methyl tertiary butyl ether (analytical reagent grade) in a sealed flask with a vacuum valve that was placed in a sonicator bath. The flask was sonicated and a vacuum was pulled until air escaped from the small bore in the stems (at least 2 minutes). The vacuum valve was then closed and the sample maintained under vacuum and sonication for an additional 30 minutes. Excess coating solution was then removed and the metering valves were rinsed and sonicated under vacuum in fresh isopropanol (analytical reagent grade) for 15 minutes. Excess rinsing solution was then removed and the metering valves were rinsed and sonicated under vacuum a second time in fresh isopropanol (analytical reagent grade) for 15 minutes. Excess rinsing solution was again removed and the metering valves were dried at 50° C. for at least 12 hours. The components were then assembled to form treated metered dose inhaler metering valves.
[…] Approximately 8.7 g of medicinal formulation was added to an aluminum canister with an internal coating of FEP (tetrafluoroethylene/hexafluoropropylene copolymer). The canister was then sealed by crimping a treated valve onto the canister to form an MDI. The MDIs were stored in a valve down orientation after filling to ensure contact of the formulation with the valve. The amount of albuterol sulfate adsorbed to the valve was 112 (+/−25) μg measured according to the valve deposition method described above.

[3] = Visual observation of the inside surface of the metering tanks
[4] = Total drug content of canisters filled from stainless steel filling system (HPLC); conditions: 0.0083% w/w suspension in HFA-227a
Experimental: The vessel was initially soaked in heptane (analytical reagent grade) for 30 minutes while exposed to ultrasonic agitation. The vessel was then rinsed with heptane (analytical reagent grade) for one minute followed by a rinse with isopropanol (analytical reagent grade) and allowed to air dry. The vessel was then immersed in a 0.1% w/w solution of A1 in methyl tertiary butyl ether (analytical reagent grade) for 30 minutes while exposed to ultrasonic agitation. The vessel was then rinsed in methyl tertiary butyl ether (analytical reagent grade) for one minute and allowed to air dry. Additional components of the filling system that contact medicinal formulation during the filling process (solenoid, tubing, stirring paddles, mixing baffles) were treated in the same manner as the vessel.
HFA-227a (600.7 g) was chilled and added to the filling vessel. […] The total drug content (i.e., drug suspended in formulation, as well as drug adhered to the canister) of 6 representative canisters (numbers 9, 11, 13, 14, 16, and 18 in the filling sequence) was analyzed using high performance liquid chromatography. A target total drug content was calculated based on the exact amount of formulation added to each canister and the nominal concentration in the filling vessel. […]

[5] = Drug adsorption to aluminum MDI canister on storage; conditions: 3 days at room temperature
Experimental: (§1) The internal surface of an aluminum metered dose inhaler canister was treated with compound A1 (n-C4F9—(CH2)11—PO3H2) which may be prepared as described in Example 2 of U.S. Pat. No. 6,824,882, the disclosure of which is hereby incorporated by reference) as follows. The canister was initially soaked in heptane (analytical reagent grade) for 30 minutes while exposed to ultrasonic agitation. The canister was then rinsed with heptane (analytical reagent grade) for one minute followed by a rinse with isopropanol (analytical reagent grade) and allowed to air dry. The canister was then immersed in a 0.1% w/w solution of A1 in methyl tertiary butyl ether (analytical reagent grade) for 30 minutes while exposed to ultrasonic agitation. The canister was then rinsed in methyl tertiary butyl ether (analytical reagent grade) for one minute and allowed to air dry.
Fluticasone propionate was added to HFA-134A propellant to prepare a medicinal formulation with a fluticasone propionate concentration of 0.0083% w/w. Approximately 13 g of medicinal formulation was added to the treated canister which was sealed with an untreated aluminum blind ferrule (i.e., a casing member lacking valve components). The canister was stored in an upright position after filling to prevent contact of the medicinal formulation with the untreated aluminum surface of the blind ferrule. The solution was stored in the canister for 3 days at room temperature. The amount of fluticasone propionate adsorbed to the canister was 2.4% (+/−1.1%) measured according to the method described above.
A canister was prepared and tested as described in Example 1 with the exception that the canister was filled with a 0.0083% w/w formulation of fluticasone propionate in HFA-227. The solution was stored in the canister for 3 days at room temperature. The amount of fluticasone propionate adsorbed to the canister was 9.7% (+/−6.5%) measured according to the method described above.
An untreated aluminum canister was filled with the medicinal formulation of Example 1. The solution was stored in the canister for 3 days at room temperature. The amount of fluticasone propionate adsorbed to the canister was 23.2% (+/−1.5%) measured according to the method described above.
An untreated aluminum canister was filled with the medicinal formulation of Example 2. The solution was stored in the canister for 3 days at room temperature. The amount of fluticasone propionate adsorbed to the canister was 35.5% (+/−1.8%) measured according to the method described above.

[6] = Triamcinolone acetonide remaining after storage in stainless steel canister (HPLC); conditions: 2 mM in ethanol
Experimental: as §1, with “a stainless steel” for “an aluminum”, “(n-C4F9—(CH2)11—PO3H2)” for “(n-C4F9—(CH2)11—PO3H2) which may be prepared as described in Example 2 of U.S. Pat. No. 6,824,882, the disclosure of which is hereby incorporated by reference)”
A triamcinolone stock solution (2 mM) was prepared by adding triamcinolone acetonide to ethanol. The canister was filled with 5 mL of the triamcinolone stock solution, sealed and stored at 70° C. An extract of the triamcinolone solution was taken after one day of storage and analyzed using high performance liquid chromatography to determine remaining drug content. […] An extract of the triamcinolone solution was taken after 7 days of storage and analyzed using high performance liquid chromatography to determine remaining drug content. The amount of triamcinolone acetonide remaining after 7 days was 83.0%.
An untreated stainless steel canister was filled with the medicinal formulation of Example 11. The amount of triamcinolone acetonide remaining after 1 day was 88.0%. An extract of the triamcinolone solution was taken after 7 days of storage and analyzed using high performance liquid chromatography to determine remaining drug content. The amount of triamcinolone acetonide remaining after 7 days was 18.0%.

[7] = A1-treated valve, 0.02% w/w in HFA-227
[8] = untreated valve, 0.02% w/w in HFA-227
[9] = A1-treated valve vs untreated valves, 0.02% w/w in HFA-227
[10] = A1-treated valve, 0.05% w/w and 10% w/w ethanol in HFA-227
[11] = untreated valve, 0.05% w/w and 10% w/w ethanol in HFA-227

% TA remaining ([1]; 24 h, 4 mM): 97.4 (+/−0.1) %
Compound: CC(C)CCCC(C)CCCC(C)CCCC(C)CCP(=O)(O)O (stereo not drawn) [A2, 1-phosphono-3,7,11,15-tetramethylhexadecane]

% TA remaining ([1]; 24 h, 4 mM): 93.2 (+/−3.6) %
Compound: CCCCCCCCCCCCCCCCP(=O)(O)O [A3, 1-phosphonohexadecane]

% TA remaining ([1]; 24 h, 4 mM): 71.5 (+/−3.2) %
Compound: CC(C)CCCC(C)CCCC(C)CCCC(C)CCC(=O)O (stereo not drawn) [A5, Phytanyl carboxylic acid]

amount of drug adsorbed to the valve [2, 7]: 23 (+/−7) μg
amount of drug adsorbed to the valve [2, 8]: 41 (+/−7) μg
visual observation of drug deposition in metering tanks [3, 9]: considerably less drug deposition
Compound: CC1(C)O[C@@H]2C[C@H]3[C@@H]4C[C@H](F)C5=CC(=O)C=C[C@]5(C)[C@H]4[C@@H](O)C[C@]3(C)[C@]2(C(=O)CO)O1 [flunisolide]

average total drug content in the filled canisters, less than the target total drug content ([4]; A1-treated stainless steel filling system, 6 canisters): 2%
average total drug content in the filled canisters, less than the target total drug content ([4]; untreated stainless steel filling system): 58%
amount of fluticasone propionate adsorbed to the canister ([5]; A1-treated aluminum canister, 0.0083% w/w in HFA-134A): 2.4%
amount of fluticasone propionate adsorbed to the canister ([5]; A1-treated aluminum canister, 0.0083% w/w in HFA-227): 9.7%
amount of fluticasone propionate adsorbed to the canister ([5]; untreated aluminum canister, 0.0083% w/w in HFA-134A): 23.2%
amount of fluticasone propionate adsorbed to the canister ([5]; untreated aluminum canister, 0.0083% w/w in HFA-227): 35.5%
Compound: CCC(=O)O[C@]1(C(=O)SCF)[C@H](C)C[C@H]2[C@@H]3C[C@H](F)C4=CC(=O)C=C[C@]4(C)[C@@]3(F)[C@@H](O)C[C@@]21C [fluticasone propionate]

Compound: CC1(C)O[C@@H]2C[C@H]3[C@@H]4CCC5=CC(=O)C=C[C@]5(C)[C@@]4(F)[C@@H](O)C[C@]3(C)[C@]2(C(=O)CO)O1 [triamcinolone acetonide]
% TA remaining ([1]; untreated aluminum oxide powder (C3), 4 mM triamcinolone acetonide in ethanol, 70° C, 1 day): 11.5 (+/−1.2) %
amount of triamcinolone acetonide remaining ([6]; A1-treated stainless steel canister, 70° C, 1 day): 94.9%
amount of triamcinolone acetonide remaining ([6]; A1-treated stainless steel canister, 70° C, 7 days): 83.0%
amount of triamcinolone acetonide remaining ([6]; untreated stainless steel canister, 1 day): 88.0%
amount of triamcinolone acetonide remaining ([6]; untreated stainless steel canister, 7 days): 18.0%

amount of drug adsorbed to the valve [2, 10]: 67 (+/−18) μg
amount of drug adsorbed to the valve ([2]; A1-treated valve, 0.05% w/w in HFA-134A, stored valve down): 112 (+/−25) μg
amount of drug adsorbed to the valve ([2]; A1-treated valve, 0.05% w/w in HFA-227): 134 (+/−54) μg
amount of drug adsorbed to the valve [2, 11]: 75 (+/−9) μg
amount of drug adsorbed to the valve ([2]; untreated valve, 0.05% w/w in HFA-134A): 138 (+/−24) μg
amount of drug adsorbed to the valve ([2]; untreated valve, 0.05% w/w in HFA-227): 167 (+/−28) μg
visual observation of drug deposition in metering tanks ([3]; A1-treated valve vs untreated valves, 0.05% w/w in HFA-134A): considerably less drug deposition
visual observation of drug deposition in metering tanks ([3]; A1-treated valve vs untreated valves, 0.05% w/w in HFA-227): considerably less drug deposition
visual observation of drug deposition in metering tanks [3, 10]: minimal drug deposition
visual observation of drug deposition in metering tanks [3, 11]: minimal drug deposition
Compound: albuterol sulfate

amount of drug adsorbed to the valve [2, 7]: 36 (+/−13) μg
amount of drug adsorbed to the valve [2, 8]: 43 (+/−12) μg
visual observation of drug deposition in metering tanks [3, 9]: considerably less drug deposition
Compound: pirbuterol acetate

Source: patent US20090050143A1, “MEDICINAL FORMULATION CONTAINER WITH A TREATED METAL SURFACE” (priority 2006, published 2009)
